Experimental findings from patent US5945436A, “Pyridylmethyl nitriles, amides and thioamides useful as fungicides” (Uniroyal Chemical Company, Inc., priority 1997, dated 1999) are described below.

One experiment has as its system Septoria nodorum. In words: Fungal growth inhibition, treated disc on agar (SEP NOD). Type of experiment: cell-based. The settings on record: disc dipped in 500 mg/l, 29° C.
A further experiment has as its system Uromyces phaseoli. Briefly: Bean rust fungus eradicant test (URO PHA). In kind it is in vivo. The settings on record: pinto bean, eradicant spray 2 days after inoculation, 1,000 mg/l. How it is done:
Compositions containing Compounds Nos. 1-81 were prepared by dissolving 0.24 grams of each of the compounds in 8 ml of acetone or other suitable inert solvent. Each of the resultant solutions was treated with 3 drops of TWEEN 20 (ethoxylated ethylene sorbitan monolaurate, a non-ionic surfactant)(I.C.I.), and water was added to form an emulsion. The degree of dilution with water was dictated by the desired concentration of the compound in the composition. The greater the quantity of water added, the lower the concentration of the compound in the composition, reported in milligrams per liter (mg/l) A plurality of pots were each planted with two pinto bean plants, Phaseolus vulgaris, each, susceptible to rust disease. When the plants were 7 days old, at the primary leaf stage of growth, they were all sprayed with a suspension containing 20,000 spores of the bean rust fungus, Uromyces phaseoli, per ml. All the pots were then incubated in a controlled environmental chamber, maintained at 99% humidity and 21° C., for 24 hours to allow infection to occur. The plants were then removed from the incubator and allowed to dry. Two days after inoculation each of the infected plants was then either sprayed with one of the compositions of Example 9, at a dosage of 1,000 mg/l, or left unsprayed. The unsprayed plants acted as controls. All of the sprayed and unsprayed plants were then placed in a greenhouse at 21° C. for nine days to allow the disease to develop. […] Control of disease was determined by comparing treated plants with the untreated controls. The results, expressed as percent reduction of disease, are summarized in Table II under the heading "URO PHA".

The test system of a further experiment is Pythium ultimum. In words: Fungal growth inhibition, treated disc on agar (PYT ULT). In kind it is cell-based. To be noted: disc dipped in 500 mg/l, 29° C.
Another experiment relates to Rhizoctonia solani. Briefly: Fungal growth inhibition, treated disc on agar (RHI SOL). In kind it is cell-based. To be noted: disc dipped in 500 mg/l, 29° C.
The subject of a further experiment is Helminthosporium sativum. Briefly: Barley spot blotch, foliar treatment (HEL SAT). Type of experiment: in vivo. To be noted: foliar, 1,000 mg/l. As to the method:
Compositions containing Compounds Nos. 1-81 were prepared by dissolving 0.24 grams of each of the compounds in 8 ml of acetone or other suitable inert solvent. Each of the resultant solutions was treated with 3 drops of TWEEN 20 (ethoxylated ethylene sorbitan monolaurate, a non-ionic surfactant)(I.C.I.), and water was added to form an emulsion. The degree of dilution with water was dictated by the desired concentration of the compound in the composition. The greater the quantity of water added, the lower the concentration of the compound in the composition, reported in milligrams per liter (mg/l) Ten plants of six day-old Barley (variety "Robust") were planted in each of a plurality of pots. Each pot was then either sprayed with one of the compositions of Example 9, at a concentration of 1,000 mg/l, or left unsprayed. The unsprayed plants were used as controls. An equal number of pots were sprayed and unsprayed. All plants, sprayed and unsprayed, were thereafter inoculated with spores of the blotch fungus Helminthosporium sativum. All inoculated plants were placed in a 99% humidity chamber for 24 hours and then placed in a greenhouse, maintained at a temperature of 21° C., for eight days. […] Percent control was computed and the results are summarized in Table II under the heading "HEL SAT".

Another experiment concerns Colletotrichum gossypii. Briefly: Fungal growth inhibition, treated disc on agar (COL GOS). The settings on record: disc dipped in 500 mg/l, 29° C. Type of experiment: cell-based.
A further experiment relates to Erysiphe cichoracearum. Briefly: Powdery mildew of cucumber, systemic root uptake (CMS). Type of experiment: in vivo. To be noted: 45 ml of 250 mg/l, 8 days after inoculation. How it is done: (§1) Compositions containing Compounds Nos. 1-81 were prepared by dissolving 0.24 grams of each of the compounds in 8 ml of acetone or other suitable inert solvent. Each of the resultant solutions was treated with 3 drops of TWEEN 20 (ethoxylated ethylene sorbitan monolaurate, a non-ionic surfactant)(I.C.I.), and water was added to form an emulsion. The degree of dilution with water was dictated by the desired concentration of the compound in the composition. The greater the quantity of water added, the lower the concentration of the compound in the composition, reported in milligrams per liter (mg/l) […] Upon reaching these ages, the plants were either treated with 45 ml of 250 mg/l concentration of the compositions of Example 9 or were left untreated. The untreated plants were used as controls. The 45 ml compositions saturated the soil of the treated pots without significant loss through drainage into the saucers below the pots. Twenty-four hours after the treatment with the compositions, both the barley and cucumber plants in all the pots, those treated and those untreated, were inoculated with powdery mildew fungus. This was accomplished by tapping leaves of previously infected barley and cucumber plants over the treated and untreated pots containing the barley and cucumber plants, respectively, to distribute spores of the fungus over the plants tested. […] Intermediate ratings were assigned depending on the degree of disease. […] The results of the powdery mildew disease control of barley are reported under the heading of "BMS". The results for cucumber mildew control are reported under the heading "CMS".

The test system of experiment [1] is Erysiphe graminis. In words: Powdery mildew in barley, foliar application (ERY GRA). To be noted: foliar, 1,000 mg/l, 8 days after inoculation. In kind it is in vivo. How it is done: (§2) Compositions containing Compounds Nos. 1-81 were prepared by dissolving 0.24 grams of each of the compounds in 8 ml of acetone or other suitable inert solvent. Each of the resultant solutions was treated with 3 drops of TWEEN 20 (ethoxylated ethylene sorbitan monolaurate, a non-ionic surfactant)(I.C.I.), and water was added to form an emulsion. The degree of dilution with water was dictated by the desired concentration of the compound in the composition. The greater the quantity of water added, the lower the concentration of the compound in the composition, reported in milligrams per liter (mg/l) Ten plants of "Robust" variety barley were planted in each of a plurality of pots. Each pot was then either sprayed with one of the compositions of Example 9, at a composition concentration of 1,000 mg/l, or left unsprayed. For each pot sprayed, one pot was left unsprayed as a control. After the leaves of the sprayed pots were dried, the sprayed pots and the unsprayed control pots were placed in a greenhouse maintained at 21° C. All the pots were then inoculated with barley powdery mildew fungus, Erysiphe graminis. This inoculation was accomplished by distributing spores of the fungus over the leaves of the plants to be tested from plants which had previously been infected with the mildew disease. […] Again, percent control was computed by comparing the treatment scores with the scores of the untreated controls. The results are summarized in Table II under the heading "ERY GRA".

For a further experiment, the system named is Pyricularia oryzae. Briefly: whole plant or invertebrate. In kind it is in vivo. The settings on record: barley, foliar, 1,000 mg/l.
For the next experiment, the system named is Fusarium oxysporum. Briefly: Fungal growth inhibition, treated disc on agar (FUS OXY). To be noted: disc dipped in 500 mg/l, 29° C. Type of experiment: cell-based.
The next experiment concerns Botrytis cinerea. In words: Fungal growth inhibition, treated disc on agar (BOT CIN). Type of experiment: cell-based. The settings on record: disc dipped in 500 mg/l, 29° C.
Experiment [2] relates to Erysiphe graminis. In words: Powdery mildew of barley, systemic root uptake (BMS). Type of experiment: in vivo. The settings on record: 45 ml of 250 mg/l, 8 days after inoculation. How it is done:
as §1

For another experiment, the system named is Erysiphe polygoni. In words: Powdery mildew on pinto bean, foliar application (ERY POL). The settings on record: similar procedure as barley (1,000 mg/l). Type of experiment: in vivo. As to the method: as §2, with “GRA". Using a similar procedure as described above for the barley, pinto bean plants were prepared, treated and inoculated with the fungus Erysiphe polygoni. The results of this testing are summarized in Table II under the heading "ERY POL".” for “GRA".”

The test system of the next experiment is Scierotinia minor. In words: Fungal growth inhibition, treated disc on agar (SCL MIN). In kind it is cell-based. The settings on record: disc dipped in 500 mg/l, 29° C.

Source text for Botrytis cinerea: (§3) Filter paper discs, each 11 mm. in diameter, were dipped in each of the test solutions. The discs were allowed to air dry to drive off the acetone solvent. A number of untreated discs were used as controls.
(§4) The treated and untreated discs were then placed on agar plates and one of the following fungus species: Septoria nodorum (SEP NOD), Botrytis cinerea (BOT CIN), Fusarium oxysporum (FUS OXY), Pythium ultimum (PYT ULT), Rhizoctonia solani (RHI SOL), Colletotrichum gossypii (COL GOS), and Scierotinia minor (SCL MIN), was added to the center of each disc in the form of a culture plug with the fungus mat in contact with the paper of the test disc. Cercosporidium personatum (CER PER), was added to discs as a spore suspension (20,000 spores/ml) to the disc (two drops of spore suspension per disc), rather than a mycelial culture plug. The plates were then incubated at 29° C. in an oven.
(§5) With the exception of the discs containing Cercosporidium personatum, the discs were evaluated by first measuring the radius from the center of the fungus colony on the treated discs and on the untreated discs. Percent growth inhibition of each of the compounds tested was determined as a function of the difference between the radius of the fungus colony on the treated disc versus the radius of the fungus colony on the untreated disc.
Source text for Colletotrichum gossypii: as §3, §4, §5
Source text for Rhizoctonia solani: as §3, §4, §5
Source text for Septoria nodorum: as §3, §4, §5

Take `CCCCC(C#N)(CCc1ccc(OC)cc1)c1ccccn1` (centres unmarked) [Compound 27]: the “Percent Growth Inhibition, SEP NOD” value in the experiment on Septoria nodorum is reported as 10%. Also, in the experiment on Uromyces phaseoli, the “Percent Reduction of Disease, URO PHA” value came to 100%. Also, the “Percent Growth Inhibition, PYT ULT” value in the experiment with Pythium ultimum is recorded as 10%. The “Percent Growth Inhibition, RHI SOL” value in the experiment with Rhizoctonia solani is reported as 5%. The “Percent Reduction of Disease, HEL SAT” value in the experiment on Helminthosporium sativum is reported as 90%. Also, the “Percent Growth Inhibition, COL GOS” value in the experiment with Colletotrichum gossypii was found to be 20%. The “Percent Reduction of Disease, CMS” value in the experiment with Erysiphe cichoracearum came out at 0%. The “Percent Reduction of Disease, ERY GRA” value in the experiment with Erysiphe graminis [1] was found to be 90%. In addition, the “Percent Reduction of Disease, PYR ORY” value with Pyricularia oryzae was 70%. Besides, in the experiment on Fusarium oxysporum, the “Percent Growth Inhibition, FUS OXY” value is listed as 10%. The “Percent Growth Inhibition, BOT CIN” value in the experiment with Botrytis cinerea worked out at 78%. In addition, the “Percent Reduction of Disease, BMS” value in the experiment on Erysiphe graminis [2] is on record as 0%. Also, the “Percent Reduction of Disease, ERY POL” value in the experiment with Erysiphe polygoni worked out at 90%. Besides, in the experiment on Scierotinia minor, the “Percent Growth Inhibition, SCL MIN” value was 93%.
